The source of these data is patent publication US20110301122A1, “HETEROAROMATIC COMPOUNDS FOR USE AS HIF INHIBITORS” (BAYER SCHERING PHARMA AKTIENGESELLSCHAFT, priority 2008, published 2011).

The assay relates to luciferase reporter under the control of an HIF-responsive sequence in HCT 116 cells. The assay can be described thus: HIF-luciferase assay. The following applies: Homo sapiens; HCT 116 cells stably transfected with HIF-responsive luciferase reporter; hypoxia chamber (1% O2), 24 h; luminescence (Bright Glo). The assay is classed as cell-based. As for the experimental part: HCT 116 cells were transfected in a stable manner with a plasmid which contained a luciferase reporter under the control of an HIF-responsive sequence. These cells were sown in microtitre plates [20,000 cells/cavity in RPMI 1640 medium with 10% foetal calf serum (FCS) and 100 μg/ml of hygromycin]. Incubation was carried out overnight under standard conditions (5% CO2, 21% O2, 37° C., moistened). The following morning the cells were incubated with various concentrations of the test substances (0-10 μmol/l) in a hypoxia chamber (1% O2). After 24 h, Bright Glo reagent (Promega, Wisconsin, USA) was added in accordance with the manufacturer'/s instructions, and after 5 min the luminescence was measured. Cells which were incubated under normoxia served as background controls.

`CNc1ccc(Cn2nc(-c3nc(-c4ccc(OC(F)(F)F)cc4)no3)cc2C)cn1` [Example 24, N-Methyl-5-[(5-methyl-3-{3-[4-(trifluoromethoxy)phenyl]-1,2,4-oxadiazol-5-yl}-1H-pyrazol-1-yl)methyl]pyridin-2-amine]: the IC50 came out at 1 nM.
In turn, `Cc1cc(-c2nc(-c3ccc(OC(F)(F)F)cc3)no2)nn1Cc1ccc(NCCCO)nc1` [Example 25] gave an IC50 of 8 nM.
Turning to `CNc1ccc(Cn2cc(-c3nc(-c4ccc(C(C)(C)C(F)(F)F)cc4)no3)cc2C)cn1` [Example 196, N-Methyl-5-[(2-methyl-4-{3-[4-(1,1,1-trifluoro-2-methylpropan-2-yl)phenyl]-1,2,4-oxadiazol-5-yl}-1H-pyrrol-1-yl)methyl]pyridin-2-amine], the IC50 came to 0.5 nM.
As for `CN=S(=O)(c1ccc(-c2noc(-c3cc(C)n(Cc4ccc(NC)nc4)n3)n2)cc1)C(F)(F)F` (racemic) [Example 187, N-Methyl-5-{[5-methyl-3-(3-{4-[N-methyl-S-(trifluoromethyl)sulphonimidoyl]phenyl}-1,2,4-oxa-diazol-5-yl)-1H-pyrazol-1-yl]methyl}pyridin-2-amine], 0.6 nM corresponded to half-maximal inhibition (IC50).
As to `CNc1ccc(Cn2nc(-c3nc(-c4ccc([Si](C)(C)C)cc4)no3)cc2C)cn1` [Example 178, N-Methyl-5-[(5-methyl-3-{3-[4-(trimethylsilyl)phenyl]-1,2,4-oxadiazol-5-yl}-1H-pyrazol-1-yl)-methyl]pyridin-2-amine], 0.6 nM corresponded to half-maximal inhibition (IC50).
`CNc1ccc(Cn2nc(-c3nc(-c4ccc(C5(F)CCC5)cc4)no3)cc2C)cn1` [Example 133]: the half-inhibitory concentration (IC50) turned out to be 1.5 nM.
The same measure for `Cc1ccc(Cn2cc(-c3nc(-c4ccc(C5(F)COC5)cc4)no3)cc2C)cc1` [Example 81]: 10 nM; for `Cc1cc(-c2nc(-c3ccc(OC(F)(F)F)cc3)no2)cn1Cc1ccc(NCCO)nc1` [Example 100, 2-({5-[(2-Methyl-4-{3-[4-(trifluoromethoxy)phenyl]-1,2,4-oxadiazol-5-yl}-1H-pyrrol-1-yl)-methyl]pyridin-2-yl}amino)ethanol]: 9 nM; for `CNc1ccc(Cn2nc(-c3nc(-c4ccc(CN(C(C)C)C(C)C)cc4)no3)cc2C)cn1` [Example 184, 5-{[3-(3-{4-[(Diisopropylamino)methyl]phenyl}-1,2,4-oxadiazol-5-yl)-5-methyl-1H-pyrazol-1-yl]-methyl}-N-methylpyridin-2-amine]: 2 nM.
In turn, `Cc1ccc(Cc2cc(-c3nc(-c4ccc(C(C)(C)C)cc4)no3)nn2C)cc1` [Example 94] registered an IC50 of 20 nM.
In the case of `Cc1cc(-c2nc(-c3ccc(OC(F)(F)F)cc3)no2)nn1Cc1ccc(NCCO)nc1` [Example 29], the IC50 worked out at 10 nM.
With `Cc1cc(-c2nc(-c3ccc(C(C)(C)C)cc3)no2)cn1Cc1ccc(Cl)nc1` [Example 72, 5-({4-[3-(4-tert-Butylphenyl)-1,2,4-oxadiazol-5-yl]-2-methyl-1H-pyrrol-1-yl}methyl)-2-chloro-pyridine], half-maximal inhibition (IC50) was put at 10 nM.
As for `CNc1ccc(Cn2nc(-c3nc(-c4ccc(C5(OC)CCC5)cc4)no3)cc2C)cn1` [Example 134], the 50% inhibitory concentration (IC50) was 2 nM.
`CNc1ccc(Cn2nc(-c3nc(-c4ccc(C5CCOCC5)cc4)no3)cc2C)cn1` [Example 166, N-Methyl-5-[(5-methyl-3-{3-[4-(tetrahydro-2H-pyran-4-yl)phenyl]-1,2,4-oxadiazol-5-yl}-1H-pyrazol-1-yl)methyl]pyridin-2-amine] registered an IC50 of 2 nM.
Compound `CNc1ccc(Cn2nc(-c3nc(-c4ccc(C5(COC)CCC5)cc4)no3)cc2C)cn1` [Example 171, 5-{[3-(3-{4-[1-(Methoxymethyl)cyclobutyl]phenyl}-1,2,4-oxadiazol-5-yl)-5-methyl-1H-pyrazol-1-yl]methyl}-N-methylpyridin-2-amine] yielded an IC50 of 0.4 nM.
Compound `CCNc1ccc(Cn2nc(-c3nc(-c4ccc([Si](C)(C)C)cc4)no3)cc2C)cn1` [Example 180, N-Ethyl-5-[(5-methyl-3-{3-[4-(trimethylsilyl)phenyl]-1,2,4-oxadiazol-5-yl}-1H-pyrazol-1-yl)-methyl]pyridin-2-amine] yielded an IC50 of 1 nM.
In turn, `Cc1cc(-c2nc(-c3ccc(OC(F)(F)F)cc3)no2)nn1Cc1ccnc(N(CCO)CCO)c1` [Example 33] came in with an IC50 of 30 nM.
The same measure for `Cc1ccc(Cn2cc(-c3nc(-c4ccc(S(=O)(=O)C(F)(F)F)cc4)no3)cc2C)cc1` [Example 79]: 4 nM; for `CNc1ccc(Cn2nc(-c3nc(-c4ccc(S(=N)(=O)C(F)(F)F)cc4)no3)cc2C)cn1` (racemic) [Example 188, N-Methyl-5-{[5-methyl-3-(3-{4-[S-(trifluoromethyl)sulphonimidoyl]phenyl}-1,2,4-oxadiazol-5-yl)-1H-pyrazol-1-yl]methyl}pyridin-2-amine]: 1 nM; for `CNc1ccc(Cn2nc(-c3nc(-c4ccc(OC(F)(F)F)c(Cl)c4)no3)cc2C)cn1` [Example 181, 5-[(3-{3-[3-Chloro-4-(trifluoromethoxy)phenyl]-1,2,4-oxadiazol-5-yl}-5-methyl-1H-pyrazol-1-yl)-methyl]-N-methylpyridin-2-amine]: 2 nM.
The compound `Cc1cc(-c2nc(-c3ccc(OC(F)(F)F)cc3)no2)nn1Cc1ccc(N)nc1` [Example 135, 5-[(5-Methyl-3-{3-[4-(trifluoromethoxy)phenyl]-1,2,4-oxadiazol-5-yl}-1H-pyrazol-1-yl)methyl]-pyridin-2-amine] yielded an IC50 of 4 nM.
The compound `CNc1ccc(Cn2nc(-c3nc(-c4ccc(OC(F)(F)F)c(F)c4)no3)cc2C)cn1` [Example 182, 5-[(3-{3-[3-Fluoro-4-(trifluoromethoxy)phenyl]-1,2,4-oxadiazol-5-yl}-5-methyl-1H-pyrazol-1-yl)-methyl]-N-methylpyridin-2-amine] returned an IC50 of 2 nM.
The compound `CNc1ccc(Cn2nc(-c3nc(-c4ccc(C(C)(C)C(F)(F)F)cc4)no3)cc2C)cn1` [Example 121] registered an IC50 of 0.4 nM.
`CNc1ccc(Cn2nc(-c3nc(-c4ccc(C5(C(F)(F)F)CC5)cc4)no3)cc2C)cn1` [Example 183, N-Methyl-5-{[5-methyl-3-(3-{4-[1-(trifluoromethyl)cyclopropyl]phenyl}-1,2,4-oxadiazol-5-yl)-1H-pyrazol-1-yl]methyl}pyridin-2-amine] displayed an IC50 of 0.6 nM.
Take `CNc1ccc(Cn2nc(-c3nc(-c4ccc(C(C)(C)C)cc4)no3)cc2C)cn1` [Example 170, 5-({3-[3-(4-tert-Butylphenyl)-1,2,4-oxadiazol-5-yl]-5-methyl-1H-pyrazol-1-yl}methyl)-N-methyl-pyridin-2-amine]: half-maximal inhibition (IC50) was put at 0.3 nM.

One may read the IC50 as the concentration that gives 50% inhibition. Higher therefore signals lower potency.
